Experimental findings from the Kinase Knowledgebase extract (Sharma et al. 2016) are described below.

The target in the test is PIK3CA (human) (UniProt P42336). The test can be described thus: Enzyme Assay.

pIC50: −log10 of the molar value. Several values for one entry are separate records, joined by “and”; a condition that tells them apart may be missing. Equal entries are not always repeated.

Sequence of PIK3CA (human) (P42336 whole entry, looked up): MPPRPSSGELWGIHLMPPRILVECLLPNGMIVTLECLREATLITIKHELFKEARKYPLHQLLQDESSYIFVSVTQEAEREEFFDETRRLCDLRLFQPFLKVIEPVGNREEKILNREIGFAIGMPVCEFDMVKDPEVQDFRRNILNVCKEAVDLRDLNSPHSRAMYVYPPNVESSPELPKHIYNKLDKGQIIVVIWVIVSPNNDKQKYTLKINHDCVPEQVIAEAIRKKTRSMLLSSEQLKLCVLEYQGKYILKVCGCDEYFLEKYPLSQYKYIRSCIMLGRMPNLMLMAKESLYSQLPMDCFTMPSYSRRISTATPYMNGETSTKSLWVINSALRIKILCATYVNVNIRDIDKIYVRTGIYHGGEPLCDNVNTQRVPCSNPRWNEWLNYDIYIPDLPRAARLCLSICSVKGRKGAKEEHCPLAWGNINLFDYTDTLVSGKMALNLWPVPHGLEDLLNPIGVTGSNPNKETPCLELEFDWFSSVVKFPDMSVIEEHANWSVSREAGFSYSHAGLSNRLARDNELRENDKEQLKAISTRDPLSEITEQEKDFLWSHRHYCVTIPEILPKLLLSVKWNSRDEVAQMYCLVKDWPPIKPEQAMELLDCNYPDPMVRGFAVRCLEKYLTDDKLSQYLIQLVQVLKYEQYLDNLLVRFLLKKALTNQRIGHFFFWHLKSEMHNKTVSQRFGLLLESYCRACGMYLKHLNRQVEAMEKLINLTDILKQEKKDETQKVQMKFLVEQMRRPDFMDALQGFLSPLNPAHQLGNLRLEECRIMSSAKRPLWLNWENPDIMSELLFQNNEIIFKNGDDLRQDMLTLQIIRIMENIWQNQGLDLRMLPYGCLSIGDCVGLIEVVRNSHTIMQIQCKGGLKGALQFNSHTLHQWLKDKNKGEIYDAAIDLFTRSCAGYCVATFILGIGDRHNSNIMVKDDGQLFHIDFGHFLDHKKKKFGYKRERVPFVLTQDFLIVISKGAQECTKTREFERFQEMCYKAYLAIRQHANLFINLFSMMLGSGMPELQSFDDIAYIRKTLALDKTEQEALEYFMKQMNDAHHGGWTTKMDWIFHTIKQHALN

Turning to `CCc1ncnc(-c2ccc(C(=O)NC3CC(N4CCC(O)CC4)C3)c(F)c2)c1C#Cc1ccc(N)nc1` (configuration not stated), the pIC50 (usually the negative decadic logarithm of the IC50, by convention in mol/L) was 6.45. To `CCc1ncnc(-c2ccc(C(=O)N3CCN(C4CCCC4)CC3)c(C)c2)c1C#Cc1ccc(N)nc1` belongs 7.04; to `CCc1ncnc(-c2ccc(C(=O)N3CCC(OC)CC3)c(Cl)c2)c1C#Cc1ccc(N)nc1`, 7.03. With `CCc1ncnc(-c2ccc(C(=O)N3CC[S+]([O-])CC3)c(Cl)c2)c1C#Cc1ccc(N)nc1`, the pIC50 was 7.20 and 7.19. For the molecule `CCc1ncnc(-c2ccc(C(=O)N3CCC(N(C)C)CC3)c(C)c2)c1C#Cc1ccc(N)nc1`, the pIC50 is 6.63. For `CCc1ncnc(-c2ccc(C(=O)N3CCC(N4CCC(C)CC4)C3)c(C)c2)c1C#Cc1ccc(N)nc1` (configuration not stated) the value was 6.70. For `CCc1ncnc(-c2ccc(C(=O)N3CCC(O)CC3)c(Cl)c2)c1C#Cc1ccc(N)nc1` the value was 7.28; for `CCc1ncnc(-c2ccc(Cl)c(C(=O)N(C)C)c2)c1C#Cc1ccc(N)nc1`, 6.71.

For the molecule `CCc1ncnc(-c2ccc(C(=O)N3CCCOCC3)c(Cl)c2)c1C#Cc1ccc(N)nc1`, the pIC50 was 7.18.

On to `CCc1ncnc(-c2ccc(C(=O)N3CCCC(N(C)C)C3)c(C)c2)c1C#Cc1ccc(N)nc1` (configuration not stated), for which the pIC50 is 6.76.

For `CCc1ncnc(-c2ccc(C(=O)N3CCOC(C)(C)C3)c(F)c2)c1C#Cc1ccc(N)nc1`, the pIC50 was 6.97.

`CCc1ncnc(-c2ccc(C(=O)N3CCC(OC)CC3)c(C)c2)c1C#Cc1ccc(N)nc1` showed a pIC50 of 7.17. For the molecule `CCc1ncnc(-c2ccc(C(=O)N3CCN(C(C)C)CC3)c(Cl)c2)c1C#Cc1ccc(N)nc1`, the pIC50 is 6.61. For `CCc1ncnc(-c2ccc(C(=O)N3CCC(C)(O)CC3)c(Cl)c2)c1C#Cc1ccc(N)nc1` the value was 7.11. In turn, `CCc1ncnc(-c2ccc(C(=O)N3CCC(OC)CC3)c(F)c2)c1C#Cc1ccc(N)nc1` gave a pIC50 of 7.09. For the molecule `CCc1ncnc(-c2ccc(C(=O)N3CCC[C@H]3CO)c(F)c2)c1C#Cc1ccc(N)nc1`, the negative-log IC50 (pIC50) was 6.87. `CCc1ncnc(-c2ccc(C(=O)NC3CCCN(C)C3)c(Cl)c2)c1C#Cc1ccc(N)nc1` (configuration not stated) showed a pIC50 of 6.29. As for `CCc1ncnc(-c2ccc(C(=O)N3CCN(CCN(C)C)CC3)c(Cl)c2)c1C#Cc1ccc(N)nc1`, the pIC50 was 6.43.

In the case of `CCc1ncnc(-c2ccc(C(=O)N3CC(O)CO3)c(F)c2)c1C#Cc1ccc(N)nc1` (configuration not stated), the pIC50 was 7.19.

Consider `CCc1ncnc(-c2ccc(C(=O)N3CCN(CC4CC4)CC3)c(Cl)c2)c1C#Cc1ccc(N)nc1`, for which the pIC50 is 6.64. For the molecule `CCc1ncnc(-c2ccc(C(=O)N(C)C)c(F)c2)c1C#Cc1ccc(C)nc1`, the pIC50 was 6.65.

Consider `CCc1ncnc(-c2ccc(C(=O)N(C)CCN3CCCC3=O)c(C)c2)c1C#Cc1ccc(N)nc1`, for which the pIC50 is 7.50. Consider `CCc1ncnc(-c2ccc(C(=O)N3CC[C@H](O)C3)c(Cl)c2)c1C#Cc1ccc(N)nc1`, for which the pIC50 was 7.24. In the case of `CCc1ncnc(-c2ccc(C(=O)N3CCCC(O)C3)c(Cl)c2)c1C#Cc1ccc(N)nc1` (configuration not stated), the pIC50 is 7.19.

`CCc1ncnc(-c2ccc(C(=O)N3CC[C@@H](O)C3)c(Cl)c2)c1C#Cc1ccc(N)nc1` had a pIC50 of 7.18.

Take `CCc1ncnc(-c2ccc(C(=O)N3CCNCC3)c(Cl)c2)c1C#Cc1ccc(N)nc1`: the pIC50 is 6.79. For `CCc1ncnc(-c2ccc(C(=O)N3CCC(C)(O)CC3)c(F)c2)c1C#Cc1ccc(N)nc1` the value was 6.96. The molecule `CCc1ncnc(-c2ccc(C(=O)N3CCN(S(=O)(=O)CC)CC3)c(C)c2)c1C#Cc1ccc(N)nc1` showed a pIC50 of 7.43.

`CCc1ncnc(-c2ccc(C(=O)N3CC[C@@H](N(C)C)C3)c(OC)c2)c1C#Cc1ccc(N)nc1`: the pIC50 is 6.45. In turn, `Cc1ncnc(-c2ccc(Cl)c(C(=O)N3CCCCC3)c2)c1C#Cc1ccc(N)nc1` had a negative logarithm of the IC50 (pIC50) of 6.51. Molecule `CCc1ncnc(-c2ccc(C(=O)N3CCC(C4CCN(C)CC4)CC3)c(Cl)c2)c1C#Cc1ccc(N)nc1` gave a negative logarithm of the IC50 (pIC50) of 6.43.

For the molecule `CCc1ncnc(-c2ccc(C(=O)N3CCN4CCCCC4C3)c(C)c2)c1C#Cc1ccc(N)nc1` (configuration not stated), the pIC50 is 6.94.

For the molecule `CCc1ncnc(-c2ccc(C(=O)N3CCN(c4ccncc4)CC3)c(Cl)c2)c1C#Cc1ccc(N)nc1`, the pIC50 is 6.68. Regarding `CCc1ncnc(-c2ccc(C(=O)N3CCC(C(F)(F)F)CC3)c(Cl)c2)c1C#Cc1ccc(N)nc1`, the pIC50 is 6.30. In turn, `CCc1ncnc(-c2ccc(C(=O)N3C[C@H]4C[C@@H]3CN4C)c(F)c2)c1C#Cc1ccc(N)nc1` had a pIC50 of 6.48. To `CCc1ncnc(-c2ccc(C(=O)N(C)O)c(Cl)c2)c1C#Cc1ccc(N)nc1` belongs 7.17; to `CCc1ncnc(-c2ccc(C(=O)N3CCC(N4CCN(C)CC4)CC3)c(C)c2)c1C#Cc1ccc(N)nc1`, 6.51.

In turn, `CCc1ncnc(-c2ccc(C(=O)N3CC[S+]([O-])CC3)c(F)c2)c1C#Cc1ccc(N)nc1` gave a pIC50 of 7.34.

For the molecule `CCc1ncnc(-c2cc(F)c(C(=O)N3CCC4(CC3)CC(=O)CO4)c(F)c2)c1C#Cc1ccc(N)nc1`, the pIC50 is 6.84.

Molecule `CCc1ncnc(-c2ccc(C(=O)N3CCCN(C)CC3)c(Cl)c2)c1C#Cc1ccc(N)nc1` gave a pIC50 of 6.39.

In the case of `CCc1ncnc(-c2ccc(C(=O)N3CCC(C(C)(C)O)CC3)c(Cl)c2)c1C#Cc1ccc(N)nc1`, the pIC50 was 7.00. For `CCNc1ccc(C#Cc2c(CC)ncnc2-c2ccc(C(=O)N3CCN(C4CCC4)CC3)c(F)c2)cn1` the value was 6.69.
